Measurements: PubChem BioAssay (NCI)
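All cell lines were grown in 96-well plates and treated with compound for 48 hours. The concentration for 50% growth inhibition is given as GI50. TGI marks complete inhibition of growth.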

Key:
Experiment in all cases: growth of human tumour cells (NCI), 48 h
OVCAR-5 ovarian = system: OVCAR-5 ovarian
M14 melanoma = system: M14 melanoma
NCI-H23 lung = system: NCI-H23 lung
786-0 renal = system: 786-0 renal
A549 NSCLC = system: A549 NSCLC
A498 renal = system: A498 renal
LOX IMVI melanoma = system: LOX IMVI melanoma
NCI-H460 lung = system: NCI-H460 lung
PC-3 prostate = system: PC-3 prostate
NCI/ADR-RES ovarian = system: NCI/ADR-RES ovarian

SMILES: COC(=O)/C(=N\NC(=S)NN)C(C(=O)C(=O)Nc1ccccc1C(N)=O)c1nc2ccccc2[nH]c1=O (centres undefined)
- TGI (OVCAR-5 ovarian): > 100 µM
- TGI (M14 melanoma): > 100 µM
- TGI (NCI-H23 lung): > 100 µM
- TGI (786-0 renal): > 100 µM
- TGI (A549 NSCLC): > 100 µM

SMILES: CCOc1cccc2nc3cccc(C(=O)NCCN(C)C)c3nc12
- TGI (A498 renal): 2.26 µM
- TGI (OVCAR-5 ovarian): 5.28 µM
- TGI (M14 melanoma): 6.04 µM
- TGI (NCI-H23 lung): 4.45 µM
- TGI (786-0 renal): > 28.7 µM
- TGI (A549 NSCLC): > 100 µM
- TGI (LOX IMVI melanoma): 2.11 µM

SMILES: COc1ccc(C(=O)C(C(=O)CCC(=O)Nc2cccc(C(F)(F)F)c2)c2ccccc2)cc1 (centres undefined)
- TGI (A498 renal): > 100 µM
- TGI (OVCAR-5 ovarian): > 100 µM
- TGI (M14 melanoma): > 100 µM
- TGI (NCI-H23 lung): > 100 µM
- TGI (786-0 renal): > 100 µM
- TGI (A549 NSCLC): > 100 µM
- TGI (NCI-H460 lung): > 100 µM

SMILES: Cn1c(N)nc2c(nc(OCc3ccccc3)n2C2OC(CO)C(O)C2O)c1=O (centres undefined)
- TGI (A498 renal): > 100 µM
- TGI (PC-3 prostate): > 100 µM
- TGI (OVCAR-5 ovarian): > 100 µM
- TGI (M14 melanoma): > 100 µM
- TGI (786-0 renal): > 100 µM
- TGI (A549 NSCLC): > 100 µM
- TGI (LOX IMVI melanoma): > 100 µM
- TGI (NCI-H460 lung): > 100 µM

SMILES: N#Cc1c(N)c(C(=O)O)nn(-c2cccc(C(F)(F)F)c2)c1=O
- TGI (A498 renal): > 100 µM
- TGI (OVCAR-5 ovarian): > 100 µM
- TGI (M14 melanoma): > 100 µM
- TGI (NCI-H23 lung): > 100 µM
- TGI (786-0 renal): > 100 µM
- TGI (A549 NSCLC): > 100 µM
- TGI (LOX IMVI melanoma): > 100 µM
- TGI (NCI-H460 lung): > 100 µM

SMILES: CC1(C)OC(=O)C=C([O-])O1.CC1(C)OC(=O)C=C([O-])O1.O=c1c(O)c(-c2ccc([O-])cc2[O-])oc2cc(O)cc(O)c12.[Ti+4]
- GI50 (A498 renal): 58.1 µM
- TGI (A498 renal): > 100 µM
- TGI (OVCAR-5 ovarian): > 100 µM
- TGI (M14 melanoma): > 100 µM
- TGI (NCI-H23 lung): 73.7 µM
- TGI (786-0 renal): > 100 µM
- TGI (A549 NSCLC): > 100 µM
- TGI (LOX IMVI melanoma): > 100 µM
- TGI (NCI-H460 lung): > 100 µM

SMILES: C=C(COC(C)=O)CC(/C=C(\C)CCC=C(C)C)OC(C)=O (centres undefined)
- TGI (A498 renal): > 100 µM
- TGI (OVCAR-5 ovarian): > 100 µM
- TGI (M14 melanoma): > 100 µM
- TGI (NCI-H23 lung): > 100 µM
- TGI (786-0 renal): > 100 µM
- TGI (A549 NSCLC): > 100 µM
- TGI (LOX IMVI melanoma): > 100 µM
- TGI (NCI-H460 lung): > 100 µM

SMILES: CCCNCc1cc(C)cc2c1nc(N1CCNCC1)n2Cc1cc(C)c(F)c(C)c1
- GI50 (PC-3 prostate): 2490 nM
- TGI (PC-3 prostate): 7.66 µM
- GI50 (OVCAR-5 ovarian): 7.58 µM
- TGI (OVCAR-5 ovarian): 22.3 µM
- GI50 (M14 melanoma): 1860 nM
- TGI (M14 melanoma): 3.47 µM
- GI50 (NCI-H23 lung): 12.8 µM
- TGI (NCI-H23 lung): 27.3 µM
- GI50 (NCI/ADR-RES ovarian): 16.1 µM
- TGI (NCI/ADR-RES ovarian): 31 µM
- GI50 (786-0 renal): 1860 nM
- TGI (786-0 renal): 3.96 µM
- GI50 (A549 NSCLC): 4540 nM
- TGI (A549 NSCLC): 17.1 µM
- GI50 (LOX IMVI melanoma): 1720 nM
- TGI (LOX IMVI melanoma): 3.22 µM
- GI50 (NCI-H460 lung): 1930 nM
- TGI (NCI-H460 lung): 4.03 µM

SMILES: NC(N)=N/N=C/c1c(-c2ccccn2)nc2sc(Cl)cn12
- GI50 (PC-3 prostate): 10900 nM
- TGI (PC-3 prostate): 22 µM
- GI50 (OVCAR-5 ovarian): 6.3 µM
- TGI (OVCAR-5 ovarian): 12.6 µM
- GI50 (M14 melanoma): 7600 nM
- TGI (M14 melanoma): 15.9 µM
- GI50 (NCI-H23 lung): 11.5 µM
- TGI (NCI-H23 lung): 19.1 µM
- GI50 (NCI/ADR-RES ovarian): 13.6 µM
- TGI (NCI/ADR-RES ovarian): 35.6 µM
- GI50 (786-0 renal): 8450 nM
- TGI (786-0 renal): 16.4 µM
- GI50 (A549 NSCLC): 6870 nM
- TGI (A549 NSCLC): 14 µM
- GI50 (LOX IMVI melanoma): 7260 nM
- TGI (LOX IMVI melanoma): 14 µM
- GI50 (NCI-H460 lung): 10200 nM
- TGI (NCI-H460 lung): 50 µM

SMILES: O=C1N[C@@H](O)[C@@H]2ON=C(c3ccccc3)[C@H]12
- TGI (A498 renal): > 100 µM
- TGI (OVCAR-5 ovarian): > 100 µM
- TGI (M14 melanoma): > 100 µM
- TGI (NCI-H23 lung): > 100 µM
- TGI (786-0 renal): > 100 µM
- TGI (A549 NSCLC): > 100 µM
- TGI (LOX IMVI melanoma): > 100 µM
- TGI (NCI-H460 lung): > 100 µM

SMILES: CC/C=C\C/C=C\C1CC(=O)NCCCNCCCCN1 (centres undefined)
- TGI (OVCAR-5 ovarian): > 100 µM
- TGI (M14 melanoma): > 100 µM
- TGI (NCI-H23 lung): > 100 µM
- TGI (786-0 renal): > 100 µM
- TGI (A549 NSCLC): > 100 µM
- TGI (LOX IMVI melanoma): > 100 µM
- TGI (NCI-H460 lung): > 100 µM

SMILES: CC(=O)n1c(-c2ccc(Cl)cc2)nc2c(c1=O)C(c1ccc(Cl)cc1)c1sc3c(Cl)cccc3c1O2 (centres undefined)
- GI50 (PC-3 prostate): 370 nM
- TGI (PC-3 prostate): 2.69 µM
- GI50 (OVCAR-5 ovarian): 1.72 µM
- TGI (OVCAR-5 ovarian): 4.31 µM
- GI50 (M14 melanoma): 300 nM
- TGI (M14 melanoma): 1.24 µM
- GI50 (NCI-H23 lung): 0.513 µM
- TGI (NCI-H23 lung): 2.32 µM
- GI50 (NCI/ADR-RES ovarian): 0.292 µM
- TGI (NCI/ADR-RES ovarian): 1.01 µM
- GI50 (786-0 renal): 480 nM
- TGI (786-0 renal): 1.7 µM
- GI50 (A549 NSCLC): 835 nM
- TGI (A549 NSCLC): 2.32 µM
- GI50 (LOX IMVI melanoma): 590 nM
- TGI (LOX IMVI melanoma): 1.91 µM
- GI50 (NCI-H460 lung): 365 nM
- TGI (NCI-H460 lung): 1.39 µM

SMILES: CN(C)c1nc(-c2cccs2)n2nc(-c3ccc(Cl)cc3)cc2n1
- GI50 (OVCAR-5 ovarian): > 100 µM
- TGI (OVCAR-5 ovarian): > 100 µM
- GI50 (NCI-H23 lung): 6.51 µM
- TGI (NCI-H23 lung): > 100 µM
- GI50 (786-0 renal): 3930 nM
- TGI (786-0 renal): > 100 µM
- GI50 (LOX IMVI melanoma): 3580 nM
- TGI (LOX IMVI melanoma): > 100 µM

SMILES: O=C1c2ccccc2-c2c1c1ccccc1c(=O)n2CCNCCCNCCn1c2c(c3ccccc3c1=O)C(=O)c1ccccc1-2
- GI50 (A498 renal): 0.432 µM
- TGI (A498 renal): 3.33 µM
- GI50 (PC-3 prostate): 293 nM
- TGI (PC-3 prostate): 1.24 µM
- GI50 (OVCAR-5 ovarian): 0.42 µM
- TGI (OVCAR-5 ovarian): 1.1 µM
- GI50 (M14 melanoma): 257 nM
- TGI (M14 melanoma): 0.536 µM
- GI50 (NCI-H23 lung): 0.249 µM
- TGI (NCI-H23 lung): 1.13 µM
- GI50 (786-0 renal): 53.9 nM
- TGI (786-0 renal): 0.326 µM
- GI50 (A549 NSCLC): 52.1 nM
- TGI (A549 NSCLC): 0.662 µM
- GI50 (LOX IMVI melanoma): 46.1 nM
- TGI (LOX IMVI melanoma): 0.331 µM
- GI50 (NCI-H460 lung): < 5 nM
- TGI (NCI-H460 lung): > 50 µM

SMILES: CN(C)C(=S)/N=c1\ss/c(=N\S(=O)(=O)c2ccccc2)n1-c1ccccc1
- TGI (A498 renal): > 100 µM
- TGI (OVCAR-5 ovarian): > 100 µM
- TGI (M14 melanoma): > 100 µM
- TGI (NCI-H23 lung): > 100 µM
- TGI (786-0 renal): > 100 µM
- TGI (A549 NSCLC): > 100 µM
- TGI (LOX IMVI melanoma): > 100 µM

SMILES: CC1(C)CCc2cc3c(cc2O1)OCCC3=O
- TGI (A498 renal): > 100 µM
- TGI (OVCAR-5 ovarian): > 100 µM
- TGI (M14 melanoma): > 100 µM
- TGI (NCI-H23 lung): > 100 µM
- TGI (786-0 renal): > 100 µM
- TGI (A549 NSCLC): > 100 µM
- TGI (LOX IMVI melanoma): > 100 µM
- TGI (NCI-H460 lung): > 100 µM

SMILES: COc1cc(/C=C/C(=N\NC(=O)c2ccccc2)c2sc(Nc3ccc(Cl)c(Cl)c3)nc2C)ccc1O
- TGI (OVCAR-5 ovarian): 81.1 µM
- TGI (M14 melanoma): 93.4 µM
- TGI (NCI-H23 lung): 77.3 µM
- TGI (786-0 renal): > 100 µM
- TGI (A549 NSCLC): > 100 µM
- TGI (LOX IMVI melanoma): 44.9 µM
- TGI (NCI-H460 lung): > 100 µM

SMILES: CC(C)(C)C1(O)Cc2ccccc2C(=O)O1 (centres undefined)
- TGI (A498 renal): > 100 µM
- TGI (OVCAR-5 ovarian): > 100 µM
- TGI (M14 melanoma): > 100 µM
- TGI (NCI-H23 lung): > 100 µM
- TGI (786-0 renal): > 100 µM
- TGI (A549 NSCLC): > 100 µM
- TGI (LOX IMVI melanoma): > 100 µM
- TGI (NCI-H460 lung): > 100 µM

SMILES: Cc1ccc(-c2nc(C(Cl)Cl)n3nc(-c4ccccc4)cc3n2)cc1
- GI50 (M14 melanoma): > 100000 nM
- TGI (M14 melanoma): > 100 µM
- GI50 (NCI-H23 lung): 1.17 µM
- TGI (NCI-H23 lung): > 100 µM
- GI50 (NCI/ADR-RES ovarian): 0.476 µM
- TGI (NCI/ADR-RES ovarian): 3.76 µM
- GI50 (786-0 renal): 676 nM
- TGI (786-0 renal): 2.17 µM
- GI50 (LOX IMVI melanoma): > 100000 nM
- TGI (LOX IMVI melanoma): > 100 µM
- GI50 (NCI-H460 lung): 273 nM
- TGI (NCI-H460 lung): 1.05 µM

SMILES: O=C(Nc1ccc(S(=O)(=O)N[C@@H](C(=O)O)c2ccccc2)cc1)c1ccc(F)cc1
- TGI (A498 renal): > 100 µM
- TGI (OVCAR-5 ovarian): > 100 µM
- TGI (M14 melanoma): > 100 µM
- TGI (NCI-H23 lung): > 100 µM
- TGI (786-0 renal): > 100 µM
- TGI (A549 NSCLC): > 100 µM
- TGI (LOX IMVI melanoma): > 100 µM
- TGI (NCI-H460 lung): > 100 µM

SMILES: COc1ccc(C2=NC(C)(C)CO2)cc1
- TGI (A498 renal): > 100 µM
- TGI (OVCAR-5 ovarian): > 100 µM
- TGI (NCI-H23 lung): > 100 µM
- TGI (786-0 renal): > 100 µM
- TGI (A549 NSCLC): > 100 µM
- TGI (LOX IMVI melanoma): > 100 µM
- TGI (NCI-H460 lung): > 100 µM
